The values below come from patent US6251900A, “Heterocyclic compounds and antitumor agent containing the same as active ingredient” (Zenyaku Kogyo Kabushiki Kaisha, priority 1997, dated 2001).

Structures can show the parent of a compound that is named as a salt.

Data set [1] relates to M5076 mouse reticulum cell sarcoma cells. The experiment in a line: Tumor growth inhibition, M5076 mouse reticulum cell sarcoma transplanted subcutaneously in BDF1 mice (Test 2). The conditions noted are these: abdominally administered for 9 days, tumor weight on day 21. The class given is in vivo. The procedure: The treated group to which the test sample was administered consisted of seven mice while the control group consisted of ten mice. Six weeks old male mice (BDF1, 25±2.5 g) were employed as host animals.
M5076 mouse reticulum cell sarcoma cells routinely cultured in abdominal of C57BL/6 male mice were diluted with cold Hanks solution and 1.0×10^6 cells of them were transplanted subcutaneously into left breast of each mouse. The samples prepared by suspending test compounds in 1% hydroxypropyl cellulose (HPC) were abdominally administered for 9 days after the day after the transplantation. After 21 days passed from the transplantation of the tumor, the mice were killed and the tumors were extracted out to measure the tumor weights of the respective groups.
Effect of sample was calculated as tumor growth inhibition by the following formula:
Tumor Growth Inhibition (%)=(1-T/C)×100
T: tumor weight of group with sample administered
C: tumor weight of control group

In data set [2] the test system is MCF-7 cells. As to the kind of experiment: Growth inhibition of MCF-7 human breast cancer cells, 72 h culture (Test 1). It is filed as cell-based. The conditions noted are these: MCF7, 37° C., read-out: 50% Growth inhibition concentrations (GI50). The procedure:
Used in the test were MCF-7 cells which were established from human breast cancer and were cultured routinely under the conditions of 37° C. and 5% CO2, in RPMI 1640 medium supplemented with 10% fetal calf serum, HEPES buffer solution (25 mM) and kanamycin (0.1 mg/ml). Single cell suspension was prepared by adding trypsin/EDTA to the medium so as to be adjusted to 4.0×10^4 cells/ml. Test compounds were dissolved or suspended in DMSO or RPMI 1640 medium at a concentration of 1.0×10^-4 -1.0×10^-9 M.
The cell suspension and the sample solution or suspension were filled in a 96-wells microplate at a rate of 0.1 ml of the former and 0.1 ml of the latter per well and cultured at 37° C. for 72 hours in 5% CO2.
50% Growth inhibition concentrations (GI50 μM) were calculated from growth inhibitions at various sample concentrations.

Data set [3] is described as follows: Acute toxicity in BDF1 male mice (Test 3). To be noted: mouse, in vivo, po, orally or abdominally administered, observation for 14 days. Here is the method:
The acute toxicity was determined by orally or abdominally administrating the compound 9 or 22 of the present invention, which was adjusted by distilled water added with 1% of hydroxypropyl cellulose, to BDF1 male mice (6-weeks-old, having a body weight of 25±2.5 g) and LD50 was obtained over observation for 14 days. As a result, it was found out that LD50 of any of the compounds was 400-800 mg/kg.

A word on the LD50: it is the dose expected to kill half of the subjects tested. A lower LD50 goes with greater toxicity. On to `C[C@@H]1OCCN(c2nc(N3CCOCC3)nc(-n3cnc4ccccc43)n2)[C@H]1C` (relative stereo) [compound 9, 2-(benzimidazol-1-yl)-4-(trans-2,3-dimethylmorpholino)-6-morpholino-1,3,5-triazine], for which the “Tumor Growth Inhibition (%)” value in data set [1] (200 mg/kg) turned out to be 98.6%. Besides, in data set [2], the GI50 was 1.2 µM. In addition, in data set [3], the LD50 at 336 h fell in the range of 400 to 800 mg/kg.
For `C[C@@H]1OCCN(c2cc(N3CCOCC3)nc(-n3cnc4ccccc43)n2)[C@H]1C` (relative stereo) [compound 22, 2-(benzimidazol-1-yl)-4-(trans-2,3-dimethylmorpholino)-6-morpholinopyrimidine], in data set [1] (100 mg/kg), the “Tumor Growth Inhibition (%)” value amounted to 83.8%. Besides, the GI50 in data set [2] was determined as 2.2 µM. In data set [3], this compound gave an LD50 at 336 h of 400 to 800 mg/kg.
`C[C@@H]1CN(c2nc(N3CCOCC3)nc(-n3cnc4ccccc43)n2)C[C@H](C)O1` [compound 1, 2-(benzimidazol-1-yl)-4-(cis-2,6-dimethyl-morpholino)-6-morpholino-1,3,5-triazine]: the “Tumor Growth Inhibition (%)” value in data set [1] (200 mg/kg) is reported as 94.7%. In addition, the GI50 in data set [2] was 2.9 µM.
As to `CC1(C)CN(c2nc(N3CCOCC3)nc(-n3cnc4ccccc43)n2)CCO1` [compound 11, 2-(benzimidazol-1-yl)-4-(2,2-dimethylmorpholino)-6-morpholino-1,3,5-triazine], in data set [1] (200 mg/kg), the “Tumor Growth Inhibition (%)” value is on record as 88.3%. For the same compound, the GI50 in data set [2] came out at 1.7 µM.
On the same counts, the results for `C[C@@H]1CN(c2cc(N3CCOCC3)nc(-n3cnc4ccccc43)n2)C[C@H](C)O1` [compound 19, 2-(benzimidazol-1-yl)-4-(cis-2,6-dimethyl-morpholino)-6-morpholinopyrimidine] are 98.1% and 3.2 µM.
As for `CN(Cc1ccccc1)CC1CN(c2nc(N3CCOCC3)nc(-n3cnc4ccccc43)n2)CCO1` (centres unmarked) [compound 31, 2-(benzimidazol-1-yl)-4-[2-(N-benzyl-N-methylamino-methyl)morpholino]-6-morpholino-1,3,5-triazine], the GI50 in data set [2] was 6.8 µM.
Consider `FCC1CN(c2nc(N3CCOCC3)nc(-n3cnc4ccccc43)n2)CCO1` (centres unmarked) [compound 32, 2-(benzimidazol-1-yl)-4-(2-fluoromethylmorpholino)-6-morpholino-1,3,5-triazine], for which the GI50 in data set [2] came out at 3.9 µM.
Consider `Cc1nc2ccccc2n1-c1nc(N2CCOCC2)nc(N2C[C@@H](C)O[C@@H](C)C2)n1` [compound 33, 4-(cis-2,6-dimethylmorpholino)-2-(2-methylbenzimidazol-1-yl)-6-morpholino-1,3,5-triazine], for which the GI50 in data set [2] came to 3.2 µM.
For `OCC1CN(c2nc(N3CCOCC3)nc(-n3cnc4ccccc43)n2)CCO1` (centres unmarked) [compound 34, 2-(benzimidazol-1-yl)-4-(2-hydroxymethylmorpholino)-6-morpholino-1,3,5-triazine], the GI50 in data set [2] was 5.8 µM.
As to `OC1CCCN(c2nc(N3CCOCC3)nc(-n3cnc4ccccc43)n2)C1` (centres unmarked) [compound 36, 2-(benzimidazol-1-yl)-4-(3-hydroxypiperidino)-6-morpholino-1,3,5-triazine], the GI50 in data set [2] worked out at 3.9 µM.
On the same count and under the same terms, as for `CC(=O)OC1CCN(c2nc(N3CCOCC3)nc(-n3cnc4ccccc43)n2)CC1` [compound 38, 2-(4-acetoxypiperidino)-4-(benzimidazol-1-yl)-6-morpholino-1,3,5-triazine], the figure is 6.5 µM; as for `OCCN(CCO)c1nc(N2CCOCC2)nc(-n2cnc3ccccc32)n1` [compound 42, 2-(benzimidazol-1-yl)-4-[N,N-di(2-hydroxyethyl)amino]-6-morpholino-1,3,5-triazine], 4.6 µM.
As for `c1ccc2c(c1)ncn2-c1nc(N2CCOCC2)cc(N2CCOCC2)n1` [compound 43, 2-(benzimidazol-1-yl)-4,6-dimorpholinopyrimidine], in data set [2], the GI50 turned out to be 4.3 µM.
`c1ccc2c(c1)ncn2-c1cc(N2CCOCC2)nc(-n2cnc3ccccc32)n1` [compound 44, 2,4-di(benzimidazol-1-yl)-6-morpholinopyrimidine]: in data set [2], the GI50 was 3.1 µM.
Regarding `c1ccc2c(c1)ncn2-c1cc(N2CCOCC2)nc(N2CCOCC2)n1` [compound 45, 4-(benzimidazol-1-yl)-2,6-dimorpholinopyrimidine], the GI50 in data set [2] came out at 4.6 µM.
Same read-out and setting: with `c1ccc2c(c1)ncn2-c1cc(-n2cnc3ccccc32)nc(N2CCOCC2)n1` [compound 46, 4,6-di(benzimidazol-1-yl)-2-morpholinopyrimidine] the figure was 4.3 µM; with `Brc1c(N2CCOCC2)nc(-n2cnc3ccccc32)nc1N1CCOCC1` [compound 47, 2-(benzimidazol-1-yl)-5-bromo-4,6-dimorpholinopyrimidine], 3.6 µM.
Consider `c1ccc2c(c1)ncn2-c1nc(N2CCOCC2)nc(N2CCC3(CC2)OCCO3)n1` [compound 48, 2-(benzimidazol-1-yl)-4-[1,4-dioxa-8-azaspiro[4,5]decan-8-yl)-6-morpholino-1,3,5-triazine], for which the GI50 in data set [2] stood at 5 µM.
`CCN(CCN1CCOCC1)c1nc(N2CCOCC2)nc(-n2cnc3ccccc32)n1` [compound 49, 2-(benzimidazol-1-yl)-4-(N-ethyl-N-2-morpholinoethyl)amino-6-morpholino-1,3,5-triazine]: in data set [2], the GI50 was determined as 5 µM.
`NCCCCC1CCCN(c2nc(N3CCOCC3)nc(-n3cnc4ccccc43)n2)C1` (centres unmarked) [compound 53, hydrochloride of 2-[3-(4-aminobutyl)piperidino]-4-(benzimidazol-1-yl)-6-morpholino-1,3,5-triazine]: in data set [2], the GI50 was found to be 5.2 µM.
For `c1cn(-c2nc(N3CCOCC3)nc(N3CCOCC3)n2)cn1` [compound A, 2-(imidazol-1-yl)-4,6-dimorpholino-1,3,5-triazine, reference compound], the “Tumor Growth Inhibition (%)” value in data set [1] (70 mg/kg) is reported as 5.0%. Moreover, the GI50 in data set [2] was found to be 20 µM.
For the compound `CN(C)c1nc(N(C)C)nc(N(C)C)n1` [compound B, hexamethylmelamine, reference compound], the “Tumor Growth Inhibition (%)” value in data set [1] (100 mg/kg) was found to be 38.8%. In addition, in data set [2], the GI50 is more than 100 µM.
As to `CN(C)c1nc(N(C)C)nc(N(C)CO)n1` [compound C, hydroxymethylpentamethylmelamine, reference compound], the GI50 in data set [2] was more than 50 µM.
